Laboratory results as given in ChEMBL document CHEMBL1201862, “PubChem BioAssay data set” (2004).
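Briefly, cells in 96-well plates were exposed to five compound concentrations for 48 h, and endpoints were estimated by linear interpolation. Abbreviation: GI50, concentration required for 50% inhibition of growth.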 Calls of active or inactive are those of the source. No stated cut-off is given here; in the data, active = GI50 up to about 1.1 µM and inactive = higher.

Experiments:
Test in all cases: inhibition of tumour cell growth, NCI panel, 48 h
[1] = test system: 786-0
[2] = test system: A498
[3] = test system: A549
[4] = test system: ACHN
[5] = test system: BT-549
[6] = test system: CAKI-1
[7] = test system: CCRF-CEM
[8] = test system: COLO 205
[9] = test system: DU-145
[10] = test system: EKVX
[11] = test system: HCT-116
[12] = test system: HL-60
[13] = test system: HOP-92
[14] = test system: HT-29
[15] = test system: Hs-578T
[16] = test system: IGROV-1
[17] = test system: K562
[18] = test system: KM12
[19] = test system: LOX IMVI
[20] = test system: M14
[21] = test system: MCF7
[22] = test system: MDA-MB-231
[23] = test system: MDA-N
[24] = test system: MOLT-4
[25] = test system: Malme-3M
[26] = test system: NCI-H226
[27] = test system: NCI-H23
[28] = test system: NCI-H460
[29] = test system: NCI/ADR-RES
[30] = test system: OVCAR-3
[31] = test system: OVCAR-5
[32] = test system: OVCAR-8
[33] = test system: PC-3
[34] = test system: RXF 393
[35] = test system: SF-268
[36] = test system: SF-295
[37] = test system: SF-539
[38] = test system: SK-MEL-28
[39] = test system: SK-MEL-2
[40] = test system: SK-MEL-5
[41] = test system: SK-OV-3
[42] = test system: SN12C
[43] = test system: SNB-19
[44] = test system: SNB-75
[45] = test system: SW-620
[46] = test system: T47D
[47] = test system: TK-10
[48] = test system: U-251
[49] = test system: UACC-257
[50] = test system: UACC-62
[51] = test system: UO-31

Measured: GI50

CC1C2(C)OC(=N)C(C#N)(C(c3cccc([N+](=O)[O-])c3)O2)C1(C#N)C#N (stereo unspecified)
inactive: [1] 17.4 µM | [2] > 100 µM | [3] > 100 µM | [4] 34 µM | [5] 31 µM | [6] 12.1 µM | [7] 15.6 µM | [8] 13.8 µM | [9] 28.4 µM | [10] 27.9 µM | [11] 18.5 µM | [12] 13.8 µM | [13] 13.6 µM | [14] 26.4 µM | [15] 27.1 µM | [16] 42.6 µM | [17] 14.6 µM | [18] 44.9 µM | [19] 16.9 µM | [20] 19.1 µM | [21] 22.5 µM | [22] 14.6 µM | [23] 16.5 µM | [24] 36.3 µM | [25] 26.2 µM | [26] > 100 µM | [27] 33.6 µM | [28] 13.5 µM | [29] 64.9 µM | [30] > 10 µM | [31] 34.7 µM | [32] 29.6 µM | [33] 30.9 µM | [34] 21.4 µM | [35] 33 µM | [36] 84.7 µM | [37] 18.9 µM | [38] 17.7 µM | [39] 19.9 µM | [40] 8 µM | [41] > 100 µM | [42] 14.9 µM | [43] 37.1 µM | [44] 40.6 µM | [45] 12.7 µM | [46] 13.7 µM | [47] 42.1 µM | [48] 21.9 µM | [49] 19.6 µM | [50] 17.9 µM | [51] 35.6 µM
